{"source": "patent US20100184178A1", "about": "“INCREASED ISOPRENE PRODUCTION USING MEVALONATE KINASE AND ISOPRENE SYNTHASE” (priority 2008, published 2010)", "key": {"Escherichia coli BL21": {"tested_on": "Escherichia coli BL21", "assay": "Growth inhibition of Escherichia coli BL21 expressing MVK, PMK, MDD and fed MVA", "assay_type": "cell-based", "settings": "5.8 mM MVA", "protocol": "FIG. 145 is a graph of growth curves for cultures of BL21 expressing MVK, circles; MVK+PMV, triangles; MVK+PMV+MDD, squares. Cultures were either fed 5.8 mM MVA, filled symbols, or grown without addition of MVA, open symbols. Y-axis is OD600. Samples were taken for analysis at times indicated by the arrow. Numbers above the arrows correspond to E. coli BL21 cells bearing pTrcK, representing a plasmid expressing MVK (#5), pTrcKK representing a plasmid expressing MVK plus PMK (#7), and pTrcKKD, representing a plasmid expressing MVK plus PMK plus MDD (#6) were grown.\nThe purpose of this experiment was to determine the effect of the expression of the proteins mevalonate kinase (MVK), phophomevalonate kinase (PMK), and diphosphomevalonate decarboxylase (MDD) of Escherichia coli cultures.\nE. coli BL21 cells bearing pTrcK, representing a plasmid expressing MVK, pTrcKK representing a plasmid expressing MVK plus PMK, and pTrcKKD, representing a plasmid expressing MVK plus PMK plus MDD were grown at approximately 30° C. and 250 rpm in 250 mL flasks containing 25 mL of TM3 medium (13.6 g K2PO4, 13.6 g KH2PO4, 2.0 g MgSO4*7H2O) supplemented with 1% glucose and 0.8 g/L Biospringer yeast extract (1% Yeast extract final). When OD600 reached 0.8 to 0.9, 5.8 mM mevalonic acid was added to the cultures and incubation was continues for an additional 5 hours. OD600 measurements were taken, and the cultures were sampled for metabolite analysis at 2 hours post MVA addition. Samples were collected into 100% MeOH prechilled in dry ice in a ratio of 1:1. Samples were stored at −80° C. until analyzed as follows. The methanol-quenched cells were pelleted by centrifugation and the resulting supernatant was loaded onto Strata-X-AW anion exchange column (Phenomenex) containing 30 mg of sorbent. The pellet was reextracted twice with several milliliters of 50%, v/v, aqueous methanol containing 20% ammonium bicarbonate buffer (pH=8.0) and then with 75%, v/v, aqueous bicarbonate-buffered methanol. […]"}, "[1]": {"settings": "about 1 atmosphere and about 60° F.; cited from earlier work"}, "[2]": {"assay": "Flammability modeling (CAFT) and experimental flammability testing of isoprene", "assay_type": "physicochemical", "from_the_text": "Thus, computer modeling and experimental testing were used to determine the flammability limits of isoprene (such as isoprene in the presence of O2, N2, CO2, or any combination of two or more of the foregoing gases) in order to ensure process safety. The flammability envelope is characterized by the lower flammability limit (LFL), the upper flammability limit (UFL), the limiting oxygen concentration (LOC), and the limiting temperature. For a system to be flammable, a minimum amount of fuel (such as isoprene) must be in the presence of a minimum amount of oxidant, typically oxygen. The LFL is the minimum amount of isoprene that must be present to sustain burning, while the UFL is the maximum amount of isoprene that can be present. Above this limit, the mixture is fuel rich and the fraction of oxygen is too low to have a flammable mixture. The LOC indicates the minimum fraction of oxygen that must also be present to have a flammable mixture. The limiting temperature is based on the flash point of isoprene and is that lowest temperature at which combustion of isoprene can propagate. […]\nThe LOC was determined to be 9.5 vol % for an isoprene, O2, N2, and CO2 mixture at 40° C. and 1 atmosphere. […]\nCalculated adiabatic flame temperatures (CAFT) along with a selected limit flame temperature for combustion propagation were used to determine the flammability envelope for isoprene. […]"}}}
{"smiles": "C[C@@](O)(CCO)CC(=O)O", "note": "[MVA, mevalonic acid]", "values": [{"measurement": "growth (OD600)", "setting": "Escherichia coli BL21; BL21 pTrcK, MVK only (strain #5)", "value": "No growth inhibition was observed"}, {"measurement": "growth (OD600)", "setting": "Escherichia coli BL21; BL21 pTrcKK, MVK plus PMK (strain #7)", "value": "inhibition of growth was evident"}, {"measurement": "growth (OD600)", "setting": "Escherichia coli BL21; BL21 pTrcKKD, MVK plus PMK plus MDD (strain #6)", "value": "additional inhibition is observed"}]}
{"smiles": "CCO", "note": "[ethanol]", "values": [{"measurement": "LFL", "setting": "[1]", "value": "about 3.3 vol %"}, {"measurement": "LOC", "setting": "[1]", "value": "about 8.7 vol %"}]}
{"smiles": "C=CC(=C)C", "note": "[isoprene, 2-methyl-1,3-butadiene]", "values": [{"measurement": "limiting oxygen concentration (LOC)", "setting": "[2]; isoprene, O2, N2, and CO2 mixture at 40° C. and 1 atmosphere", "value": 9.5, "unit": "vol %"}, {"measurement": "limiting temperature", "setting": "[2]; lowest temperature at which combustion of isoprene can propagate", "value": "about −54 °C"}]}
